Columns and labels:
Format in all cases: cell-based, human
opto-α-syn SH-SY5Y cells = experiment: OASIS-based high-content imaging assay of light-induced α-syn aggregation (5G4 staining, Aggregates Induction Score)
Experimental: The opto-α-syn expressing SH-SY5Y cells were seeded in 96-well black flat bottom imaging microplates (Falcon) at 30,000 cells per well in 100 μL of complete media using E1-ClipTip electronic multichannel pipette (Thermo Fisher Scientific) and incubated in 37° C. and 5% CO2 humidified incubator. After 18 h of incubation, 10 μL of 10 μM compounds (column 2 to 10) or 1% DMSO (column 1 and 12) were added (final concentration of DMSO is 0.1%). In order to induce aggregations, the plates were illuminated with blue light (26 μW/mm^2) on customized blue light illumination 96-well plates for 2 h. Afterward, cells were fixed in 4% paraformaldehyde (PFA) for 15 min and stained with the aggregated-α-syn antibody (5G4) after permeabilization with 0.1% Triton X-100/0.5% BSA/PBS solution. […] To analyze images, the automated aggregation quantification algorithm and cell counting algorithm in the form of macro are developed using ImageJ software. Briefly, the algorithm includes the inversion, subtracting background, threshold selection, analyzing particles with ranged size and circularity. The Aggregates Induction Score (AIS) is calculated using, the following equation: […]
where N^agg is the number of aggregates, ^Ntotal is the number of total cells. The AIS in each well is normalized by the AIS in positive control which is set as 1.0. […] The hit selection strategy was based on calculated AIS; hits were defined as AIS<0.5. […] Two independent experiments were performed, and total 10 images per well are analyzed to calculate AIS.
As illustrated in FIGS. 8A-8E, high-content imaging screening with the optogenetic α-syn aggregation system was performed, following the schematic representation of the process of high-content imaging (HCI) screening with optogenetics-assisted method of alpha-synuclein aggregation induction system (OASIS) (FIG. 8A). SH-SY5Y cells expressing opto-α-syn were in dark or exposed to blue light (26 μW/mm^2 at 470 nm, 1 Hz, 1 s) for 1.5 h under 96-well plate culture conditions, and then immunostained with 5G4 antibody. The equation of Aggregates Induction Score (AIS) (FIG. 8B) was used for the calculation of Z′-factor for HCI screening with OASIS (FIG. 8C). […] Arrow represents the degree of separation (Z′-factor) between light-illuminated and darkness controls. […] Detailed information of numbered compounds was described in Table 1. One-way ANOVA followed by Dunnett's post hoc test (n=10 or 20, 5 or 10 images each from two independent experiments). *P<0.05, **P<0.01, ***P<0.001, ****P<0.0001.
As illustrated in FIGS. 9A-9B, high-content imaging screening with the optogenetic α-syn aggregation system was performed. The measurement of 5G4^+ aggregates in opto-mock or opto-α-syn SH-SY5Y neuronal cells was assessed. Cells were in dark or exposed to blue light (26 μW/mm^2 at 470 nm, 1 Hz, 1 s) for 1.5 h, and then immunostained with 5G4 antibody. […] Images were converted to grayscale, and a threshold was adjusted to exclude the background based on the size of particles. Once the value of threshold was determined, all the images were applied with the fixed threshold, and then the number of aggregates was measured (FIG. 9A). Number of DAPI from the original images were counted (FIG. 9B). Representative images of opto-α-syn SH-SY5Y neuronal cells treated with 19 compounds under 24-well plate culture conditions were imaged. SH-SY5Y cells expressing opto-α-syn were in dark or exposed to blue light (34 μW/mm^2 at 470 nm, 1 Hz, 0.5 s) for 1.5 h, and then immunostained with 5G4 antibody.

[1] = test system: blue light-illuminated opto-α-syn-mDA neurons; experiment: Autophagy and aggregate clearance in blue light-illuminated opto-α-syn-mDA neurons
Experimental: (§1) Because autophagy can be activated by the inhibition of PI 3-kinase (PI3K) or the PDK1 pathway, it was tested whether treatment with BAG 956 can induce the autophagic flux to decrease α-syn aggregates in opto-α-syn mDA neurons and MOs.

[2] = test system: α-syn PFF-treated opto-α-syn-mDA neurons; experiment: Autophagy markers (western blot) in α-syn PFF-treated mDA neurons; details: compared with control or CDC 021 treatment
Experimental: as §1

[3] = blue light-illuminated opto-α-syn-mDA neurons
[4] = mDA neurons exposed to blue light

Cc1nc2cnc3ccc(C#Cc4cccnc4)cc3c2n1-c1ccc(C(C)(C)C#N)cc1 [BAG 956]
AIS compared to blue light-illuminated DMSO control (opto-α-syn SH-SY5Y cells; two independent experiments, 24-well culture conditions, blue light stimulation): significant decrease | AIS, aggregates induction score (opto-α-syn SH-SY5Y cells; validation of 19 hits, 24-well plates, blue light, AIS normalized to positive control (blue light, DMSO) set as 1.0): 0.34 | LC-311 induction compared with BYL719 (alpelisib) or BAY 80-6946 (copanlisib) [1, 3]: more potent | level of LC-311 [1, 3]: increased | LC3+/5G4+ co-localized vesicles [1, 4]: increased number | number of LC3+ puncta [1, 4]: increased number | level of autophagic marker LC-311 [2]: up-regulated | level of autophagy flux protein p62 [2]: down-regulated

From US20260023070A1, “OPTOGENETIC ALPHA-SYNUCLEIN AGGREGATION SYSTEM-BASED COMPOUND SCREENING PLATFORM IN PD-hiPSC-mDA NEURONS” (The Johns Hopkins University, priority 2022, published 2026)
